Calls of active or inactive are those of the source. How the calls were made is not given here.
The compounds below were run against Voltage-gated inwardly rectifying potassium channel KCNH2 (Homo sapiens) (UniProt Q12809) (assay: hERG current rescue from dofetilide block, late-stage follow-up, orthogonal assay, cell-based, manual patch clamp, HEK293-hERG (AID 2321)). Conditions: at 10 µM, stronger effect = higher value.
Sequence of Voltage-gated inwardly rectifying potassium channel KCNH2 (Homo sapiens) (Q12809 whole entry, looked up): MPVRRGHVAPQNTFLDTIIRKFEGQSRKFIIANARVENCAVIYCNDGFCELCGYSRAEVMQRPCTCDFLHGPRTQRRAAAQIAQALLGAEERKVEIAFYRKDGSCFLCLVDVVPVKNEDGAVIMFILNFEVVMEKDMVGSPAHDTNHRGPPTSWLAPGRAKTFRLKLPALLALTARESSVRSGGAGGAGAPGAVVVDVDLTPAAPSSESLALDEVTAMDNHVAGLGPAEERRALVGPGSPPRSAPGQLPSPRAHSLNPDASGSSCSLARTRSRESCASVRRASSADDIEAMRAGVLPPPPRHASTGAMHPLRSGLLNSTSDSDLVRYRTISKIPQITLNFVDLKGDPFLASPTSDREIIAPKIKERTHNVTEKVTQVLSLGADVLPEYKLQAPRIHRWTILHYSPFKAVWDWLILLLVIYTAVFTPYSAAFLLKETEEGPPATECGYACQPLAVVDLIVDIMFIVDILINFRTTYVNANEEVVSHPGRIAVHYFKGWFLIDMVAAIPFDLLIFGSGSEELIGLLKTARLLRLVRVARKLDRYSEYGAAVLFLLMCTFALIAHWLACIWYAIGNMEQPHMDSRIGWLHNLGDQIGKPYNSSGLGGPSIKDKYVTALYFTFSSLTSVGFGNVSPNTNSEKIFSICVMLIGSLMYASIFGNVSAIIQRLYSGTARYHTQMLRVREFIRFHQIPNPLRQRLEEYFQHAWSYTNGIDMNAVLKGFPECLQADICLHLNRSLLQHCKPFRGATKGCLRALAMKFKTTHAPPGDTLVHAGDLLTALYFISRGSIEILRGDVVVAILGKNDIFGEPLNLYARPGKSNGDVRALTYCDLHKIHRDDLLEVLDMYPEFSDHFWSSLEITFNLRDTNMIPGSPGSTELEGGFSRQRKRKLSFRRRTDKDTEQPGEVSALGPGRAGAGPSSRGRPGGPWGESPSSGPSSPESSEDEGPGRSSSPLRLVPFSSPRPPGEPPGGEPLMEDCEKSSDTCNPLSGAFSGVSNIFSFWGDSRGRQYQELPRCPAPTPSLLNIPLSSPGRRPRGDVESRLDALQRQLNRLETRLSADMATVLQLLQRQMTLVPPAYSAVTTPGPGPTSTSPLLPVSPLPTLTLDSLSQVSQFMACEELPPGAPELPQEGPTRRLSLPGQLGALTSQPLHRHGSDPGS
With `Clc1ccc2oc(Nc3ccccn3)nc2c1` the percent unblocked was 0% (inactive). In the case of `COc1ccccc1NC(=S)NC(=O)c1ccc(-c2ccc(Cl)cc2)o1`, the percent unblocked is reported as 0% (inactive). In the case of `Cc1ccc(C(=O)Nc2nc3ccccc3c(=O)s2)cc1`, the percent unblocked is reported as 0% (inactive). With `O=C(O)c1cc(Cl)ccc1Nc1nc2cc(Cl)ccc2o1` the percent unblocked was 0% (inactive). For `COc1ccc(OC)c(NC(=S)NC(=O)c2ccc(Br)o2)c1`, the percent unblocked was 0% (inactive). With `O=C(O)c1ccc(Nc2nc3cc(Cl)ccc3o2)cc1` the percent unblocked was 0% (inactive). For `CN(c1ccccc1)c1nc2cc(Cl)ccc2o1`, the percent unblocked was 0% (inactive). `O=C(COc1ccc2ccccc2c1Br)Nc1cccnc1` was tested, and the percent unblocked was 0% (inactive). For `O=C(O)c1ccccc1Nc1nc2cc(Cl)ccc2o1`, the percent unblocked was 0% (inactive).
